{"source": "patent US20240165135A1", "about": "“COMPOSITIONS AND METHODS FOR THE TREATMENT OF CANCER” (The State of Israel, Ministry of Agriculture & Rural …, priority 2021, published 2024)", "key": {"[1]": {"tested_on": "A172 GBM cells", "experiment": "XTT cell viability assay on A172", "format": "cell-based, Human", "settings": "for effect of IA, AN or B alone on A172 cell viability: 10 μM; for IC50: Homo sapiens, A 172, 48 h", "description": "Cell cultures—Human glioblastoma A172 (ATCC®CRL-1620™) was cultured in DMEM (01-055-1A, Biological Industries, Israel) and U87MG (U87; ATCC®HTB-14™) in EMEM (01-058-1A; Biological Industries, Israel). Both media were supplemented with 10% fetal bovine serum (FBS, 04-127-1A, Biological Industries, Israel), 1% Pen-Strep, 1% L-Glutamine and 0.02% plasmocin (i.e., complete medium). Cells were incubated at 37° C. in a humidified atmosphere containing 5% CO2—95% air. Serum free media (SFM) was composed of DMEM/F12 (01-170-1A; Biological Industries, Israel), including all the supplements above except for FBS. Neurosphere media for A172 was composed of SFM with 2% B-27; Neurosphere media for U87 was serum-free EMEM without B27. For Glioblastoma stem cells (GSCs) cultures all human materials were used in accordance with the policies of the Henry Ford Hospital Institutional Review Board. Generation of GSCs from fresh GBM specimens and their characterization have been recently described. The GSCs were plated in neurosphere medium (DMEM-F12 1:1, glutamine 10 mM, HEPES buffer 10 mM and sodium bicarbonate 0.025%) supplemented with EGF and bFGF (20 ng/mL).\n(§1) Cell viability assays—Cells were seeded in 96-well plates at density of 2×10^4 per well (100 μL/well) in SFM (for A172) or complete medium (for U87) and were incubated at 37° C. overnight to allow attachment. The following day, cells were treated with plant extracts (n=3), fractions, or cannabinoid standards in volume of 100 μL/well at different concentrations. Solvents used as a vehicle control and doxorubicin was used as a positive control in all the biological assays. Where indicated, CB1 or CB2 inverse agonists, TRPV1 or TRPV2 antagonists or TRPA1 blocker were added along with the indicated treatments at a concentration of 10 μM/mL in complete medium. Treated cells were incubated for 48 h at 37° C. Subsequently, XTT reagents (2,3-bis(2-methoxy-4-nitro-5-sulfophenyl)-5-[(phenylamine)-carbonyl]-2H-tetrazolium inner salt) (20-300-1000; Biological Industries, Israel) were added to the cells for 2 hours at 37° C. in a humidified 5% CO2—95% air atmosphere. Absorbance was recorded by a Synergy H1 hybrid reader photometer (BioTek) at 490 nm with 650 nm of reference wavelength. Cell viability was estimated from the equation: […]\n(§2) For dose response assays, data points were connected by non-linear regression lines of the sigmoidal dose-response relation. GraphPad Prism version 6.1 (www(dot)graphpad(dot)com/scientific-software/prism/, GraphPad Software Inc., San Diego, USA) was employed to produce dose-response curves and determination of IC50 values."}, "[2]": {"tested_on": "ovarian cancer cell line HTB75", "experiment": "XTT cell viability assay on HTB75", "format": "cell-based", "settings": "for effect of IA, AN or B alone on HTB75 cell viability: 10 μM, 48 h", "description": "FIGS. 17A-B show cell viability of HTB75 cells (FIG. 17A) following treatment with crude extract of cannabis strains DQ, Paris, GB-11, GB-14 and GB-18. Cell viability was determined by XTT assay as a function of live cell number. NT is the vehicle treated control (1% v/v methanol). Error bars indicate ±SE (n=3). […] (FIG. 17B) following treatment with C. sativa DQ crude extract at different concentrations for IC50 value calculation from 5P logistic curve fit using GraphPad Prism version 6.1. Error bars indicate ±SE (n=3).\nFIGS. 18A-C show cell viability of HTB75 cells following treatment with DQ extract fractions F1-F8, and crude extract. FIG. 18A—Cell viability was determined by XTT assay as a function of live cell number. NT is the vehicle treated control (1% v/v methanol). Error bars indicate ±SE (n=3). […] (FIGS. 18B-C) Cell viability of HTB75 cells following treatment with C. sativa DQ fractions F5 and F7 at different concentrations for IC50 values calculation from 5P logistic curve fit using GraphPad Prism version 6.1. Error bars indicate ±SE (n=3).\nas §1, §2"}, "[3]": {"settings": "given orally per mouse; reference [2]; cited from earlier work"}, "[4]": {"tested_on": "HTB75 cells", "experiment": "Combined treatments with chemotherapy drugs on HTB75 viability, Bliss-independence model", "format": "cell-based", "settings": "combination treatments", "excerpt": "FIGS. 23A-C are graphs showing synergistic interactions between fractions of some embodiments of the invention with (FIG. 23A) cisplatin, (FIG. 23B) gemcitabine and (FIG. 23C) niraparib on cell viability of HTB75 cells following combined treatments. Synergy of cytotoxic activity calculated based on Bliss-independence drug interaction model. Synergy is apparent when the experimental (observed) value of cell survival inhibition is higher than the calculated (expected) value. Values of delta of observed minus expected values, calculated based on Bliss model are shown in the Y axis."}, "[5]": {"tested_on": "HTB75 cells", "experiment": "Apoptosis/necrosis, annexin V-FITC and PI FACS, HTB75", "format": "cell-based", "settings": "48 h; niraparib 5.1, F5 19.1, F7 19.4, F5-SM 17.4, F7-SM 16.3 μg/mL; vehicle control 17.3%", "description": "(§3) 10^4 cells were analyzed per treatment. Control is vehicle control (1.5% v/v methanol). The treated cells were harvested and analyzed in FACS following annexin V-FITC and PI staining. Error bars indicate ±SE (n=3).\nApoptosis assay—Apoptosis for the A172 cell line was assessed using MEBCYTO Apoptosis Kit with Annexin V-FITC and PI (MBL, Enco, 4700). Staining was carried out according to manufacturer's instructions. In brief, cells were seeded in a 6-well TC plate, at a density of 4×10^5 cells in 2 mL of SFM per well. 24 hours following seeding, cells were treated with the indicated treatments in complete medium for 48 hours. Following incubation, cells were harvested using trypsin and centrifuged for 5 minutes at 1600 rpm. Cell pellets were resuspended and washed twice with 1 mL of PBS. The cells in each sample were resuspended in 85 μL of Annexin binding buffer. Cells were stained using 10 μL of Annexin V-FITC solution and 5 μL of propidium iodide (PI) working solution followed by incubation in the dark at room temperature for 15 minutes. Then 400 μL of Annexin V binding buffer was added to each tube and flow cytometry was performed using a Gallios flow cytometer (FACS). Cells were considered apoptotic if they were Annexin V+/PI− (early apoptosis) or Annexin V+/PI+ (late apoptosis). Live cells were defined as Annexin V−/PI−, and Annexin V−/PI+ as necrosis."}, "[6]": {"tested_on": "HTB75 cells", "experiment": "Cell cycle FACS, HTB75", "format": "cell-based", "settings": "24 h; F5-SM 17.4 μg/mL, niraparib 4 μg/mL; control 21.4%", "description": "as §3\nCell cycle analysis—A172 cells were seeded in 6-well TC plate at a concentration of 4×10^5 cells in 2 mL of SFM per well. Following 24 hours incubation, cells were treated with indicated treatments in complete medium for 24 hours. Methanol and doxorubicin were used as negative and positive controls, respectively. Cells were harvested and centrifuged for 5 minutes at 1600 rpm. Cell pellets were washed once with 1 mL of PBS and fixed with 70% cold ethanol overnight at −20° C. The fixed cells were washed twice with 1 mL of PBS and stained with 250 μL of PI solution (50 μg/mL) containing RNase A (100 μg/mL) for 30 minutes in dark conditions. 250 μL PBS was added to each tube and the cells were analyzed using FACS."}, "[7]": {"tested_on": "MAPK4 gene", "experiment": "Quantitative PCR of MAPK4 gene in HTB75 cell line", "format": "cell-based", "settings": "2 h, relative to control", "description": "FIG. 24 is a graph showing quantitative PCR-based determination of the RNA steady state level in HTB75 cell line of MAPK4 gene, after treatment with niraparib, F5, F7 or combination of niraparib+F5 or niraparib+F7, for 2 h relative to control. Gene transcript values were determined by quantitative PCR as a ratio between the target gene versus a reference gene (Hypoxanthine Phosphoribosyltransferasel; HPRT1; geneID 3251). Values were calculated relative to the average expression of target genes in treated versus control using the 2ΔΔCt method. Control (methanol) treatment served as solvent (vehicle) control; Error bars indicate ±s.e.m. (n=3)."}, "[8]": {"tested_on": "A172 cells", "experiment": "Scratch-wound assay, A172 cell migration", "format": "cell-based, Human", "settings": "36 hours; F4 20, F4-SM 11.5, F5 20, F5-SM 11.5, Doxo 0.5 μg/mL", "description": "Scratch-wound assay—A172 cells were seeded in a 96-well plate at a density of 2×10^4 per well in 100 μL of complete medium. Following 24 hours, cells in each well were scratched perpendicularly across the center of the well with a 200 μL pipette tip to produce a cell-free area for investigating the ability of the cells to migrate and close the gap under different treatments. Immediately following scratching, 100 μL of treatment solution was added. Photos were taken by a CARL ZEISS inverted microscope coupled with a camera at 0, 14, 20, and 36 hours following scratching, and the gap area was measured using ImageJ (version 1.53a). The scratch area, indicated by cells migrated into the scratch was calculated as percent of scratch area at time x from time 0: […]"}}}
{"molecule": "Cc1c(C(=O)NN2CCCCC2)nn(-c2ccc(Cl)cc2Cl)c1-c1ccc(I)cc1", "note": "[AM251]", "values": [{"measurement": "effect of IA, AN or B alone on A172 cell viability", "setting": "[1]; 48 hours", "value": "reduced A172 cell viability to a minor, non-significant extent"}, {"measurement": "effect of IA, AN or B alone on HTB75 cell viability", "setting": "[2]", "value": "did not affect HTB75 cell viability"}]}
{"molecule": "CC(C)c1ccc(NC(=O)Cn2cnc3c2c(=O)n(C)c(=O)n3C)cc1", "note": "[TRPA1 B, HC-030031]", "values": [{"measurement": "effect of IA, AN or B alone on A172 cell viability", "setting": "[1]; 48 hours", "value": "reduced A172 cell viability to a minor, non-significant extent"}, {"measurement": "effect of IA, AN or B alone on HTB75 cell viability", "setting": "[2]", "value": "did not affect HTB75 cell viability"}]}
{"molecule": "CO", "note": "[methanol]", "values": [{"measurement": "LD50", "setting": "[3]", "value": "~7300", "unit": "mg/kg"}]}
{"molecule": "COc1cccc(NC(=O)/C=C/c2ccc(Cl)cc2)c1", "note": "[TRPV1 AN, SB-366791]", "values": [{"measurement": "effect of IA, AN or B alone on A172 cell viability", "setting": "[1]; 48 hours", "value": "reduced A172 cell viability to a minor, non-significant extent"}, {"measurement": "effect of IA, AN or B alone on HTB75 cell viability", "setting": "[2]", "value": "did not affect HTB75 cell viability"}]}
{"molecule": "Nc1ccn([C@@H]2O[C@H](CO)[C@@H](O)C2(F)F)c(=O)n1", "note": "[Gemcitabine]", "values": [{"measurement": "synergy of gemcitabine with F5, F7, F5-SM, F7-SM", "setting": "[4]", "value": "no considerable synergy"}]}
{"molecule": "NC(=O)c1cccc2cn(-c3ccc([C@@H]4CCCNC4)cc3)nc12", "note": "[niraparib]", "values": [{"measurement": "cell apoptosis", "setting": "[5]", "value": 64.1, "unit": "%"}, {"measurement": "percentage of cells in S phase", "setting": "[6]", "value": 48.3, "unit": "%"}, {"measurement": "MAPK4 expression", "setting": "[7]", "value": "reduced"}]}
{"molecule": "SR144528 [CB2 IA]", "values": [{"measurement": "effect of IA, AN or B alone on A172 cell viability", "setting": "[1]; 48 hours", "value": "reduced A172 cell viability to a minor, non-significant extent"}, {"measurement": "effect of IA, AN or B alone on HTB75 cell viability", "setting": "[2]", "value": "did not affect HTB75 cell viability"}]}
{"molecule": "CCCCCc1cc(O)c2c(c1)OC(C)(C)[C@@H]1CCC(C)=C[C@@H]21", "note": "[THC, Tetrahydrocannabinol]", "values": [{"measurement": "IC50", "setting": "[1]", "value": 4.83, "unit": "µg/mL"}, {"measurement": "inhibition of cell migration in comparison to the vehicle control", "setting": "[8]", "value": 12.5, "unit": "%"}, {"measurement": "effectiveness of phytocannabinoid combinations on HTB75 viability", "setting": "[2]; fixed total concentration 13 and 15 μg/mL, ratios as in F5 or F7", "value": "less effective than various combinations of THC, CBC, CBG and CBN"}]}
{"molecule": "Cn1nnc2c(C(N)=O)ncn2c1=O", "note": "[TMZ, temozolomide]", "values": [{"measurement": "effect on A172 viability / cell death", "setting": "[1]; up to 50 μg/mL, 48 hours", "value": "no effect"}]}
{"molecule": "CCCCCc1cc(O)c(C/C=C(\\C)CCC=C(C)C)c(O)c1", "note": "[CBG, cannabigerol]", "values": [{"measurement": "IC50", "setting": "[1]", "value": 5, "unit": "µg/mL"}, {"measurement": "inhibition of cell migration in comparison to the vehicle control", "setting": "[8]", "value": 2.8, "unit": "%"}]}
